In this experiment the test system is mosquito sodium channel (AaNav1-1). The experiment is described as follows: Two-electrode voltage clamp of sodium channels expressed in Xenopus oocytes. It is filed as cell-based, Aedes aegypti. The note with it: 20 ms step-depolarization before and after exposure; FIG. 4J. The text has this:
FIG. 4A-4J illustrate that pyrethrin-induced repellency is synergized by (E)-β-farnesene via activation of both AaOr31 and sodium channels. […] FIG. 4B graphically illustrates repellency elicited by pyrethrin I (P-I) and pyrethrin II (P-II) at 10^−3 dilution in Orlando (wild-type) and orco^−/− mosquitoes (n=9 cages for Orlando control from 2 batches of mosquitoes; n=10 cages for orco−/− control from 2 batches of mosquitoes, P-I: U=31, n=11 cages for Orlando; and n=12 cages for orco−/− from 3 batches of mosquitoes, P-II: U=15; n=14 cages for Orlando; and n=15 cages for orco−/− from 4 batches of mosquitoes). […] The effect of pyrethrum was measured 10 minutes after its application. Pyrethrum-induced tail currents were recorded during a 100-pulse train of 5 milliseconds step depolarizations from −120 to −10 mV with 5 milliseconds inter-pulse intervals (Du et al. (2013)). The percentage of pyrethrum-modified channels was calculated using the following equation: M=[Itail/(Eh−ENa)]/[INa/(Et−ENa)]×100; where Itail is the maximal tail current amplitude, Eh is the potential to which the membrane is repolarized, ENa is the reversal potential for sodium currents determined from the current-voltage curve, INa is the amplitude of the peak current during depolarization before pyrethrum exposure, and Et is the potential of the step depolarization. […]
In general terms: Two-electrode voltage clamp holds a large cell at a set potential and records current.

Consider `CC1(C)C2CCC1(C)C(O)C2` (single isomer, unassigned; (-)) [(−)-borneol], for which the “effect on peak current and channel gating” value is recorded as “no effects”.

The values are drawn from US20210392882A1, “METHODS AND COMPOSITIONS FOR IMPROVED INSECT REPELLENCY” (Board of Trustees of Michigan State University, priority 2020, published 2021).
